Experimental data published in ChEMBL document CHEMBL3046869, “Investigation of myorelaxant activity of 9-aryl-3,4,6,7-tetrahydroacridine-1,8-(2H,5H,9H,10H)-diones in isolated rabbit gastric fundus” (2012).
Activity calls are given as the source filed them. The rule behind the calls is not given here.

Assays:
Settings in all cases: Stomach
[1] = test system: Gastric fundus smooth muscle; assay: Myorelaxant activity in noradrenaline-precontracted New Zealand Oryctolagus cuniculus (rabbit) gastric fundus smooth muscle strips in presence of large-conductance Ca2+-activated K+ channel blocker iberiotoxin; type: functional
[2] = test system: Gastric fundus smooth muscle; assay: Myorelaxant activity in noradrenaline-precontracted New Zealand Oryctolagus cuniculus (rabbit) gastric fundus smooth muscle strips in presence of K-ATP channel blocker glibenclamide; type: functional
[3] = test system: Gastric fundus smooth muscle; assay: Myorelaxant activity in noradrenaline-precontracted New Zealand Oryctolagus cuniculus (rabbit) gastric fundus smooth muscle strips in presence of Ca2+-activated K+ channel blocker TEA; type: functional
[4] = test system: Gastric fundus smooth muscle; assay: Myorelaxant activity in noradrenaline-precontracted New Zealand Oryctolagus cuniculus (rabbit) gastric fundus smooth muscle strips in presence of small-conductance Ca2+-activated K+ channel blocker apamine; type: functional
[5] = test system: Gastric fundus smooth muscle; assay: Myorelaxant activity in noradrenaline-precontracted New Zealand Oryctolagus cuniculus (rabbit) gastric fundus smooth muscle strips in presence of KV blocker 4-aminopyridine
Oryctolagus cuniculus [6] = species: Oryctolagus cuniculus; assay: Activation of potassium channel in noradrenaline-precontracted New Zealand Oryctolagus cuniculus (rabbit) gastric fundus smooth muscle strips assessed as muscle relaxant activity relative to control; type: tissue-based
Oryctolagus cuniculus [7] = species: Oryctolagus cuniculus; assay: Activation of potassium channel in noradrenaline-precontracted New Zealand Oryctolagus cuniculus (rabbit) gastric fundus smooth muscle strips assessed as muscle relaxant activity; type: tissue-based

| SMILES | Emax [1] | Emax [2] | Emax [3] | Emax [4] | Emax [5] | Emax (Oryctolagus cuniculus [6]) | pD2 (Oryctolagus cuniculus [7]) |
| --- | --- | --- | --- | --- | --- | --- | --- |
| CC1CC(=O)C2=C(C1)NC1=C(C(=O)CC(C)C1)C2c1cccc([N+](=O)[O-])c1 (configuration not stated) | 54.4% | 51.8% | 54.6% | 35.3% | 54.1% | 62.1% | 4.57 |
| CC1CC(=O)C2=C(C1)NC1=C(C(=O)CC(C)C1)C2c1ccc([N+](=O)[O-])cc1 (configuration not stated) | 82.5% | 52% | 74.4% | 54.5% | 51.4% | 53.9% | 4.66 |
| CC1CC(=O)C2=C(C1)NC1=C(C(=O)CC(C)C1)C2c1ccccc1F (configuration not stated) | inactive | inactive | inactive | inactive | inactive | inactive | inactive |
| CC1CC(=O)C2=C(C1)NC1=C(C(=O)CC(C)C1)C2c1ccc(C(F)(F)F)cc1 (configuration not stated) | 43.3% | 43.8% | 35.1% | 26.7% | 14% | 33.8% | 4.68 |
| CC1CC(=O)C2=C(C1)NC1=C(C(=O)CC(C)C1)C2c1cccc(C#N)c1 (configuration not stated) | 30.9% | 66% | 44.6% | 60.6% | 32.3% | 56% | 4.7 |
| CC1CC(=O)C2=C(C1)NC1=C(C(=O)CC(C)C1)C2c1ccc(F)cc1 (configuration not stated) | 39.1% | 46.7% | 18.8% | 39.3% | 21.8% | 37.2% | 4.6 |
| CC1CC(=O)C2=C(C1)NC1=C(C(=O)CC(C)C1)C2c1ccccc1C(F)(F)F (configuration not stated) | inactive | inactive | inactive | inactive | inactive | inactive | inactive |
| CC1CC(=O)C2=C(C1)NC1=C(C(=O)CC(C)C1)C2c1cccc(C(F)(F)F)c1 (configuration not stated) | inactive | inactive | inactive | inactive | inactive | inactive | inactive |
| CC(N/C(=N\C#N)Nc1ccncc1)C(C)(C)C (configuration not stated) | – | – | – | – | – | 73.5% | 4.9 |
| CC1CC(=O)C2=C(C1)NC1=C(C(=O)CC(C)C1)C2c1ccccc1[N+](=O)[O-] (configuration not stated) | inactive | inactive | inactive | inactive | inactive | inactive | inactive |
| CC1CC(=O)C2=C(C1)NC1=C(C(=O)CC(C)C1)C2c1ccc(C#N)cc1 (configuration not stated) | 52% | 45.2% | 45.2% | 45.7% | 51.1% | 46% | 4.57 |
